According to US20050170391A1, “TAUT1 transporters expressed in blood brain barrier cells” (Xenoport, Inc., priority 2004, published 2005):

Target: T1, TAUT1 (Homo sapiens, UniProt P31641)
T1 sequence (P31641 1-620): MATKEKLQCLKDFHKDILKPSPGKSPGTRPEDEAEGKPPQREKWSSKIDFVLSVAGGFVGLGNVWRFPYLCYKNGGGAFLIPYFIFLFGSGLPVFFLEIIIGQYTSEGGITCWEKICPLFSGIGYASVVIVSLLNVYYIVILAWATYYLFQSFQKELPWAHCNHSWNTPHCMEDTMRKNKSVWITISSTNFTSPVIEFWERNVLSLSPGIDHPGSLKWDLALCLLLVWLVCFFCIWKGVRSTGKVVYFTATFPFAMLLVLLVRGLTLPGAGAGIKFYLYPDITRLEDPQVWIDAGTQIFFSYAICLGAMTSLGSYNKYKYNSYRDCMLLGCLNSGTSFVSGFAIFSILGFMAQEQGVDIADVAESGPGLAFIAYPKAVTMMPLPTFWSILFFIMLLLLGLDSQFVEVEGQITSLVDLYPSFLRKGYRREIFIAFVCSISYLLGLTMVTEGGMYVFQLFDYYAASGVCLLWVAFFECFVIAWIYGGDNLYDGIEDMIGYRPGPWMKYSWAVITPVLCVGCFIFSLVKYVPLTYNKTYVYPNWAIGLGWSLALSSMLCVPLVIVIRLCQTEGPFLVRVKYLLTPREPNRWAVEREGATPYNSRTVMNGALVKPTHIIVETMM
Assay: hTAUT1 competition uptake assay in HEK-TREx-TAUT1 cells
Assay type: cell-based
Set-up: expressed in transfected cells; host or cells: HEK-TREx cells (HEK-TREx-TAUT1 inducible line)
Conditions: HEK-TREx-TAUT1 cells induced with tetracycline; ^3H-GABA radiolabel (taurine: ^3H-taurine per Example 9); 15 min, room temperature
Protocol: A modified competition uptake assay was developed to determine the ability of a test compound(s) to inhibit the uptake of radiolabeled substrates into HEK-TREx-TAUT1 cells induced to over-express hTAUT. The results are stated as affinities (IC50).
The competition uptake assay were prepared as follows: Compounds were prepared for assay by diluting a 100 mM stock concentration (in DMSO) to the appropriate working concentration. Typically, seven-point dose response curves were prepared starting at a final assay concentration of 1 mM and carrying out three-fold dilutions. These dilutions were prepared by making a working “compound” plate that contained a 2× solution of the desired starting concentration of each test compound in duplicate in row A of a v-bottom microtiter plate. Six 3-fold serial dilutions (from row B to G) were made into the HBSS assay buffer (9.8 g/L Hank's Balance Salts (Sigma; H-1387), 2.6 g/L HEPES (10 mM) (Sigma; H-3375), 0.35 g/L NaHCO3 (4.2 mM) (Sigma; S-6297), pH to 7.4 with 5N NaOH) (with the appropriate amount of DMSO so that the DMSO concentration remains constant at all dilutions). The resulting “compound” plate contained serial dilutions of six compounds in duplicate.
^3H-GABA was diluted into HBSS buffer to a final concentration of 4,000 cpm/μl. Enough solution was prepared to allow addition of 25 μl/well (the final concentration was 100,000 cpm/well).
HEK-TREx-hTAUT cells, plated in 96-well plates and treated with tetracycline (or tet analog (e.g., doxycycline), were removed from the incubator. Growth media was removed from the cells, and the cells were washed twice in room temperature HBSS (100 μl/well/wash) using a 96-well plate washer (Bio Tek ELX405). Alternatively, cells were washed manually with equivalent volumes using a multichannel pipettor. Immediately before beginning the assay, the final 100 μl wash solution was removed from the cells by aspiration.
Using a 96-well pipettor, 25 μl from the “compound” plate was added to each well of the cell plate. The assay was started by adding 25 μl of the ^3H-GABA working solution. The plate was incubated at room temperature for 15 minutes. The assay was stopped by washing the cells four times with ice-cold HBSS buffer using a ELX 405 plate washer (100 μl buffer/well/wash) having an angled buffer dispenser.
Scintillation fluid (200 μl) (Optiphase Supermix (Perkin Elmer) was added to each well, and the plate was covered with a 96-well adhesive plate cover and placed on a shaker for 10 minutes. The plates were counted on a 96-well plate scintillation counter for 60 sec/well. The data were analyzed using a sigmoidal dose response curve-fitting program ((Prism, GraphPad, Inc, San Diego, Calif.; equation: one-site competition).
FIG. 7 depicts the results of a competition experiment using HEK-TREx-TAUT1 cells. ^3H-taurine was used as the substrate and unlabeled taurine was used as the competitor. The competition experiment was performed as described in Example 7. Non-specific uptake was determined by measuring the uptake into cells not induced to express the transporter (“no tet”). […] In control cells, uptake of labeled taurine remained at background levels and was largely unaffected by an excess of unlabeled taurine.
These four compounds, IAA, R,S-Baclofen, GPA, and GABA, were tested in both competition and direct uptake assays. One notable difference in the competition assay format compared to the literature is that ^3H-GABA was used, rather than ^3H-taurine, as the radiolabel. […] Therefore, to develop a competition assay that is as sensitive as possible, ^3H-GABA, a substrate with a much […] affinity, was used.

| Structure (SMILES) | IC50 | pIC50 |
| --- | --- | --- |
| NCCCC(=O)O [GABA, γ-aminobutyric acid] | 54 µM |  |
| N=C(N)NCCC(=O)O [GPA] | 24 µM | 4.7 |
| O=C(O)Cc1c[nH]cn1 [IAA, 4-imidazole acetic acid] | 56 µM |  |
| NCC(CC(=O)O)c1ccc(Cl)cc1 (stereo not drawn) [R,S-Baclofen] | 1100 µM | 3.0 |
